Consider two compounds from PMC2925244 (Current biology : CB, 2010).

Common to all, as to type: cell-based
Assay [1] deals with hTAS2R40 (Homo sapiens, UniProt P59535). The assay can be described thus: calcium imaging in transfected cells, […] GIV3727 against […] cohumulone. The settings on record: read-out: % activation in presence of GIV3727.
The target of assay [2] is T1, hTAS2R4 (Homo sapiens, UniProt Q9NYW5).
T1 sequence (Q9NYW5 1-299): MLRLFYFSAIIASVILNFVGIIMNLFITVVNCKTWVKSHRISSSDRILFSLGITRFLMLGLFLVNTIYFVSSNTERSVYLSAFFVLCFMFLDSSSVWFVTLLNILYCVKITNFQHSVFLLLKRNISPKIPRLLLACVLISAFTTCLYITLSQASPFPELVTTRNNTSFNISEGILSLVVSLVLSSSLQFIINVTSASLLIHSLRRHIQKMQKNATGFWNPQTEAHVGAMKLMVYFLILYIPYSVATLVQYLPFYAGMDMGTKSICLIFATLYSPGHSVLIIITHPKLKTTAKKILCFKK
Briefly: calcium imaging in transfected cells, […] GIV3727 against […] colchicine. The settings on record: read-out: % activation in presence of GIV3727.

Assay [3] has as its target T2, hTAS2R7 (Homo sapiens, UniProt Q9NYW3).
T2 sequence (Q9NYW3 1-318): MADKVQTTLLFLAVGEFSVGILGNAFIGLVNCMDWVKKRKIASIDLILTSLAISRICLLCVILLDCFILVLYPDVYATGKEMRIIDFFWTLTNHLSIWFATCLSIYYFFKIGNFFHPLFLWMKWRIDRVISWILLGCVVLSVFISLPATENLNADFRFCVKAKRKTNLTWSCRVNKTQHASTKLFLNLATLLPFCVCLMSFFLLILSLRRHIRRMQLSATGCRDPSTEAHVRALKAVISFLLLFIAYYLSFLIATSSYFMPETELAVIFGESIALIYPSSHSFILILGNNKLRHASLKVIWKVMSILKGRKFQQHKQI
Briefly: calcium imaging in transfected cells, […] GIV3727 against […] cromolyn. The settings on record: read-out: % activation in presence of GIV3727.

Assay [4] addresses T3, hTAS2R43 (Homo sapiens, UniProt P59537).
T3 sequence (P59537 1-309): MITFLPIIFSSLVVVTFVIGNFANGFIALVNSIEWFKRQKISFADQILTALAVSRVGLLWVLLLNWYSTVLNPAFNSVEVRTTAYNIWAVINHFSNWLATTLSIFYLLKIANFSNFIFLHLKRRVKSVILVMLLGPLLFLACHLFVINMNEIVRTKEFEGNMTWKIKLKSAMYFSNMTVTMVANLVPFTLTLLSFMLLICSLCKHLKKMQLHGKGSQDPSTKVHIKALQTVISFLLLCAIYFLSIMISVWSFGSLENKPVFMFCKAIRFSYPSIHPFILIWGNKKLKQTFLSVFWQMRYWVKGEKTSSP
Briefly: calcium imaging in transfected cells, […] GIV3727 against […] aristolochic acid. The settings on record: read-out: % activation in presence of GIV3727.

Assay [5] has as its target T4, hTAS2R31 (Homo sapiens, UniProt P59538).
T4 sequence (P59538 1-309): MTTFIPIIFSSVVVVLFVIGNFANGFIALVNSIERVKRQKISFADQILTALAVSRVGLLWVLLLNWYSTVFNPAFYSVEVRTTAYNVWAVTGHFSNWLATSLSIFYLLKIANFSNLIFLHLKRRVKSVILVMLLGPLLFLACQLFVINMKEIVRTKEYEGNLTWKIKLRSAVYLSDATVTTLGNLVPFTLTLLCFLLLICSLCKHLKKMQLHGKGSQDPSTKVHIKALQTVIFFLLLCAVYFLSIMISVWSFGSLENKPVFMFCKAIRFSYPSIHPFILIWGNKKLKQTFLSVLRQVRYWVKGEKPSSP
Briefly: FLIPR calcium imaging in HEK293 cells stably expressing hTAS2R31 and G16gust44.

Assay [6] has as its target T3, hTAS2R43. The assay can be described thus: calcium imaging in transfected cells, agonist at […].

The IC50 is the midpoint of a concentration-inhibition curve.

Chain of hTAS2R40 (P59535 whole entry): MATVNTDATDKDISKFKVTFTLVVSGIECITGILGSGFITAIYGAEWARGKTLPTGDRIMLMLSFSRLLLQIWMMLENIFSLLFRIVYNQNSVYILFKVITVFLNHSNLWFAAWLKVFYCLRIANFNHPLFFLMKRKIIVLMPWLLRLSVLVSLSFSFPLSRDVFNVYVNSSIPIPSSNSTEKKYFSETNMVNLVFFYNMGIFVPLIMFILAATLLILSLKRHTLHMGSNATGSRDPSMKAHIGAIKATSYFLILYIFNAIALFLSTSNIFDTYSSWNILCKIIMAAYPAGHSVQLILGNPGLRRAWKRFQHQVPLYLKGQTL

On to `CC1CCC(CCCC(=O)O)C1(C)C` (stereo not drawn) [GIV3727, 4-(2,2,3-trimethylcyclopentyl)butanoic acid], for which the activity at 25 µM in assay [1] turned out to be 3.2 ± 6.5%; in assay [2], 45.8 ± 17.4%; in assay [3] it was 47.8 ± 17%; in assay [4] it was 2.5 ± 4.9%. The IC50 in assay [5] was 6.4 ± 2.4 µM.

Take `COc1cccc2c1cc([N+](=O)[O-])c1c(C(=O)O)cc3c(c12)OCO3` [aristolochic acid]: the “calcium imaging in transfected cells, agonist at 0.3 μM” value in assay [6] is “confers sensitivity to aristolochic acid, which activates hTAS2R43 but is inactive in the native hTAS2R46 (Figure S4)”.
